Measurements from patent US11702426B2, “Macrocyclic deaza-purinones for the treatment of viral infections” (JANSSEN SCIENCES IRELAND UNLIMITED COMPANY, priority 2013, dated 2023).
Read-outs that look alike come from different tables or passages of the source.

Key:
[1] = rcm bond
[2] = tested on: interferon production in human PBMC; assay: Interferon production in human PBMC, read out on HEK-ISRE-luc reporter cells; assay type: cell-based; conditions: Homo sapiens, PBMC, 24 h, lowest effective concentration, PBMC incubated overnight with compound, supernatant transferred to HEK-ISRE-luc cells, read-out: PBMC HEK-ISRE-luc (LEC; μM)
Method: Activation of human TLR7 results in robust production of interferon by plasmacytoid dendritic cells present in human blood. The potential of compounds to induce interferon was evaluated by determination of interferon in the conditioned media from peripheral blood mononuclear cells (PBMC). The presence of interferon in the samples was determined, using an interferon reporter cell line stably expressing an interferon-stimulated responsive elements (ISRE)-luc reporter construct. The ISRE element with sequence TAGTTTCACTTTCCC (SEQ ID NO: 1) is highly responsive to the STAT1-STAT2-IRF9 transcription factor, which becomes activated upon binding of IFN-I to the IFN receptor. Briefly, PBMCs were prepared from buffy coats of at least two donors using a standard Ficoll centrifugation protocol. Isolated PBMCs were resuspended in RPMI medium supplemented with 10% human AB serum and 2×10^5 cells/well were dispensed into 384-well plates containing compounds (70 μL total volume). After overnight incubation of the PBMCs with the compounds, 10 μL of supernatant was transferred to 384-well plates containing 5×10^3 HEK-ISRE-luc cells/well in 30 μL (plated the day before). Following 24 hours of incubation, activation of the ISRE elements was measured by assaying luciferase activity using 40 μL/well Steady Lite Plus substrate (Perkin Elmer) and measured with ViewLux ultraHTS microplate imager (Perkin Elmer). The stimulating activity of each compound on the HEK-ISRE-luc cells was reported as LEC. The LEC in turn indicates the degree of ISRE activation on transfer of a defined amount of PBMC culture medium. Recombinant interferon alfa-2a (Roferon-A) was used as a standard control compound.

[3] = tested on: HEK293 NFκB-luc; assay: Counterscreen: HEK293 cells transfected with NFκB-luc reporter construct alone; assay type: cell-based; conditions: lowest effective concentration; greater than the highest tested concentration
Method: In parallel, a similar dilution series of compound was used (200 nL of compound in 100% DMSO) with 40 μL per well of cells transfected with NFκB-luc reporter construct alone (1.25×10^5 cells/mL). Six hours after incubation at 37° C., 5% CO2, the luciferase activity was determined by adding 15 μl of Steady Lite Plus substrate (Perkin Elmer) to each well and readout performed on a ViewLux ultraHTS microplate imager (Perkin Elmer). Counterscreen data is reported as LEC.

[4] = biological target: T1, human TLR7 (Homo sapiens, UniProt Q9NYK1); assay: HEK293 TLR7-NFκB-luc cellular reporter assay; assay type: cell-based; conditions: lowest effective concentration; HEK293 transiently transfected with TLR7 and NFκB-luc; 6 hours incubation
T1 construct: expressed in transfected cells; host or cells: HEK293
T1 sequence (Q9NYK1 27-1049): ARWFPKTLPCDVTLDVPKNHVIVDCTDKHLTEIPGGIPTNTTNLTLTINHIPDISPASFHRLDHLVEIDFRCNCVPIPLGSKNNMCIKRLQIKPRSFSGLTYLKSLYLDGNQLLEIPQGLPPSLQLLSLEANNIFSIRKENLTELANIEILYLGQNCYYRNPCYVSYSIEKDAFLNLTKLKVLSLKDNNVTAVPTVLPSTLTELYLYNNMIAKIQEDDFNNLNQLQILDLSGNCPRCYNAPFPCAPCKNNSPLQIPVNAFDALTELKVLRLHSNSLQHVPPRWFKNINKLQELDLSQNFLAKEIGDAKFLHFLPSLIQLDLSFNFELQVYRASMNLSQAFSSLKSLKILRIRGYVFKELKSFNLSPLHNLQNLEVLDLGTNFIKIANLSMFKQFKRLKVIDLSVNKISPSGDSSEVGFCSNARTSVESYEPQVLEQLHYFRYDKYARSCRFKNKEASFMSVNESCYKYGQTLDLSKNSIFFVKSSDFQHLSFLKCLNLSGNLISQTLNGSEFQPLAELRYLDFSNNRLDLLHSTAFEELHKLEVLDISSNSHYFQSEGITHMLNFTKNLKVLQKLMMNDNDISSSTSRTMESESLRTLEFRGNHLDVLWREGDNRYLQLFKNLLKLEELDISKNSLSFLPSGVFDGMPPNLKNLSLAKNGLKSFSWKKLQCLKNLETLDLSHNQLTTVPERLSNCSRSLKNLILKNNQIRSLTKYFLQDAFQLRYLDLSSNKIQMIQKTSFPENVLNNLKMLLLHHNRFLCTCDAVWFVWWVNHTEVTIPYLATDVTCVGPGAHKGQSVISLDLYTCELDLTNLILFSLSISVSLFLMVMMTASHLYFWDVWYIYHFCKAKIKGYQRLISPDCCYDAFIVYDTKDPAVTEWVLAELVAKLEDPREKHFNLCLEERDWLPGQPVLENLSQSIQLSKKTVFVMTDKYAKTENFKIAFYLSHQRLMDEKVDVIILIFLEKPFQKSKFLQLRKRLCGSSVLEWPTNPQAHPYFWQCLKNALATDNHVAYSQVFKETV
Method: (§1) The ability of compounds to activate human TLR7 and TLR8 was assessed in a cellular reporter assay using HEK293 cells transiently transfected with a TLR7 or TLR8 expression vector and NFκB-luc reporter construct. Briefly, HEK293 cells were grown in culture medium (DMEM supplemented with 10% FCS and 2 mM Glutamine). For transfection of cells in 15 cm dishes, cells were detached with Trypsin-EDTA, transfected with a mix of CMV-TLR7 or TLR8 plasmid (1,700 ng), NFκB-luc plasmid (850 ng) and a transfection reagent and incubated 48 hours at 37° C. in a humidified 5% CO2 atmosphere. Transfected cells were then washed in PBS, detached with Trypsin-EDTA, and resuspended in medium to a density of 1.25×10^5 cells/mL. Forty microliters of cells were then dispensed into each well in 384-well plates, where 200 nL of compound in 100% DMSO was already present. Following 6 hours incubation at 37° C., 5% CO2, the luciferase activity was determined by adding 15 μl of Steady Lite Plus substrate (Perkin Elmer) to each well and readout performed on a ViewLux ultraHTS microplate imager (Perkin Elmer). Dose response curves were generated from measurements performed in quadruplicates. Lowest effective concentrations (LEC) values, defined as the concentration that induces an effect which is at least two fold above the standard deviation of the assay, were determined for each compound.

[5] = biological target: T2, human TLR8 (Homo sapiens, UniProt Q9NR97); assay: HEK293 TLR8-NFκB-luc cellular reporter assay; assay type: cell-based; conditions: lowest effective concentration; greater than the highest tested concentration
T2 construct: expressed in transfected cells; host or cells: HEK293
T2 sequence (Q9NR97 27-1041): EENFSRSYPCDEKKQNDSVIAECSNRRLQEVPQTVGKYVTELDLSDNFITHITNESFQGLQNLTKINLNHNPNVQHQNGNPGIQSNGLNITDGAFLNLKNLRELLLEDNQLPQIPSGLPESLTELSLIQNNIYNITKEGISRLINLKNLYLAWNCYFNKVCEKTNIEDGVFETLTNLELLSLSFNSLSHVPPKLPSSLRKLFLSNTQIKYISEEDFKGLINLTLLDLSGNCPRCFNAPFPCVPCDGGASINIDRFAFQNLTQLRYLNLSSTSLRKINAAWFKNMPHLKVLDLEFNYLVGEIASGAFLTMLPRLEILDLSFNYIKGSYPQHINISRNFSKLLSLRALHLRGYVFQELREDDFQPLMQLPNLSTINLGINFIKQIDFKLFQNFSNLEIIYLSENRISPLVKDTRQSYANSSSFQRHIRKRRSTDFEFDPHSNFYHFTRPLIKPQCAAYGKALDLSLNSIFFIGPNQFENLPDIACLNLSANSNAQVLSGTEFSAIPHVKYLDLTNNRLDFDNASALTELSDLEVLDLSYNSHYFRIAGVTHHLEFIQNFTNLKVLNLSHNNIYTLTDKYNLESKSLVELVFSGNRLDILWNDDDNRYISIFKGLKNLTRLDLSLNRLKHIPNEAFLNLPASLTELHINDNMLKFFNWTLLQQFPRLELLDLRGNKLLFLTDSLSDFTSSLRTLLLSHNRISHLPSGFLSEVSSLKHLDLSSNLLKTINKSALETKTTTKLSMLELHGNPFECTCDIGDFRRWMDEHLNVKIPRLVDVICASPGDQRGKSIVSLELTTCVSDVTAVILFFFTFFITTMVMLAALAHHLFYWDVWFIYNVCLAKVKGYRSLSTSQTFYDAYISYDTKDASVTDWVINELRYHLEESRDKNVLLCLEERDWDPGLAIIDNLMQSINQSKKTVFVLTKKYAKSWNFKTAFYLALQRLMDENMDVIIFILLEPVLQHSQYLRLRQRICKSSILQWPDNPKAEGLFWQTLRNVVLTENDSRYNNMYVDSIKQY
Method: as §1

For `CCOC(=O)N1Cc2ncccc2OCC=CCCOc2cc1c([N+](=O)[O-])c(N)n2`, the ring closure, yield of all isomers ([1]; from C=CCCOc1cc(N(Cc2ncccc2OCC=C)C(=O)OCC)c([N+](=O)[O-])c(N)n1, Hoveyda-Grubbs 2nd generation (with chlorodicyclohexylborane), 1,2-dichloroethane, 3.6 mM, 120.0 °C, 3.0 h) was 22%.

For `CCOC(=O)N1Cc2cccc(c2)CC=CCCOc2cc1c([N+](=O)[O-])c(N)n2`, the ring closure, yield of all isomers ([1]; from C=CCCOc1cc(N(Cc2cccc(CC=C)c2)C(=O)OCC)c([N+](=O)[O-])c(N)n1, Grubbs 2nd generation, CH2Cl2, 3.38 mM, 25.0 °C, 72.0 h) was 33%.

`CCOC(=O)N1Cc2cccc(c2)N(C(=O)OC(C)(C)C)CC=CCCOc2cc1c([N+](=O)[O-])c(N)n2` gave a ring closure, yield of all isomers ([1]; from C=CCCOc1cc(N(Cc2cccc(N(CC=C)C(=O)OC(C)(C)C)c2)C(=O)OCC)c([N+](=O)[O-])c(N)n1, Grubbs catalyst 2nd generation, dichloromethane, 6.93 mM, 25.0 °C, 24.0 h) of 67%.

Work on `CCOC(=O)N1Cc2cc(OC)cc(c2)OCC=CCCOc2cc1c([N+](=O)[O-])c(N)n2` yielded a ring closure, yield of all isomers ([1]; from C=CCCOc1cc(N(Cc2cc(OC)cc(OCC=C)c2)C(=O)OCC)c([N+](=O)[O-])c(N)n1, Grubbs 2nd generation, CH2Cl2, 5.3 mM, 25.0 °C, 16.0 h) of 41%.

For `CCOC(=O)N1Cc2cccc(c2)OCC=CCCOc2cc1c([N+](=O)[O-])c(N)n2`, the ring closure, yield of all isomers ([1]; from C=CCCOc1cc(N(Cc2cccc(OCC=C)c2)C(=O)OCC)c([N+](=O)[O-])c(N)n1, Grubbs 2nd generation, CH2Cl2, 5.22 mM, 25.0 °C, 20.0 h) was 15%.

With `CCOC(=O)N1Cc2cccc(c2)OCCC=CCOc2cc1c([N+](=O)[O-])c(N)n2` the ring closure, yield of all isomers ([1]; from C=CCCOc1cccc(CN(C(=O)OCC)c2cc(OCC=C)nc(N)c2[N+](=O)[O-])c1, Grubbs-Hoveyda catalyst 2nd generation (with chlorodicyclohexylborane), 1,2-dichloroethane, 4.18 mM, 120.0 °C, 32.0 h) was 36%.

For `Nc1nc2cc3c1nc(O)n3Cc1cccc(c1)CCCCCO2` [Compound 4], the minimal effective concentration [2] was 2.56 µM, the “LEC on HEK293 NFκB-luc (counterscreen)” value [3] was > 10 µM and the “HEK293 TLR7-NFκB-luc (LEC; μM)” value [4] was 2.38 µM. The “LEC on HEK293 TLR8-NFκB-luc” value [5] was > 10 µM.

With `CCOC(=O)N1CCc2ccc(OC)c(c2)OCC=CCOc2cc1c([N+](=O)[O-])c(N)n2` the ring closure, yield of all isomers ([1]; from C=CCOc1cc(N(CCc2ccc(OC)c(OCC=C)c2)C(=O)OCC)c([N+](=O)[O-])c(N)n1, Grubbs-Hoveyda catalyst 2nd generation (with chlorodicyclohexylborane), 1,2-dichloroethane, 4.24 mM, 120.0 °C, 23.0 h) was 25%.
